Source: ChEMBL document CHEMBL1201862, “PubChem BioAssay data set” (2004)
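The compound was tested at five concentrations on cells cultured in 96-well plates, with a 48-hour exposure period. Abbreviation: GI50, concentration required for 50% inhibition of growth.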 The source made the active and inactive calls. Cut-off read from the data, not from the text of the source: active = GI50 up to about 1.1 µM and inactive = higher. Starred links: 1 amine or outer side, 2 acyl side, 3 side chain; linkers in the order of their positions; H or OH if unused. Non-standard residues stand in square brackets, D forms with d. Residues, ends and D or L forms follow the SMILES beside them. X4 = C[C@H](N[*:1])C(=O)C(C)(C)C(=O)[*:2]; Hmpa(2S,3S) = CC[C@H](C)[C@H](O)C(=O)O; NMeY = CN[C@@H](Cc1ccc(O)cc1)C(=O)O; NMeL = CN[C@@H](CC(C)C)C(=O)O; NMeV = CN[C@H](C(=O)O)C(C)C; βAla = NCCC(=O)O

Legend:
Assay in all cases: NCI tumour cell line growth inhibition, 48 h
[1] = tested on: 786-0
[2] = tested on: A549
[3] = tested on: HL-60
[4] = tested on: HT-29
[5] = tested on: K562
[6] = tested on: KM12
[7] = tested on: LOX IMVI
[8] = tested on: NCI-H226
[9] = tested on: NCI-H460
[10] = tested on: PC-3
[11] = tested on: RPMI-8226
[12] = tested on: SF-295
[13] = tested on: SK-MEL-5
[14] = tested on: SK-OV-3
[15] = tested on: SN12C
[16] = tested on: SW-620
[17] = tested on: UACC-257
[18] = tested on: UACC-62
[19] = tested on: UO-31
[20] = tested on: MDA-N

Structure (SMILES) | GI50 [1] | GI50 [2] | GI50 [3] | GI50 [4] | GI50 [5] | GI50 [6] | GI50 [7] | GI50 [8] | GI50 [9] | GI50 [10] | GI50 [11] | GI50 [12] | GI50 [13] | GI50 [14] | GI50 [15] | GI50 [16] | GI50 [17] | GI50 [18] | GI50 [19] | GI50 [20]
COc1ccc(-n2c(=O)c3nc(S)[nH]c3n(-c3ccc(OC)cc3)c2=S)cc1 | > 100 µM (inactive) | > 100 µM (inactive) | > 100 µM (inactive) | > 100 µM (inactive) | > 100 µM (inactive) | > 100 µM (inactive) | > 100 µM (inactive) | > 100 µM (inactive) | > 100 µM (inactive) | > 100 µM (inactive) | > 100 µM (inactive) | > 100 µM (inactive) | > 100 µM (inactive) | > 100 µM (inactive) | > 100 µM (inactive) | > 100 µM (inactive) | > 100 µM (inactive) | > 100 µM (inactive) | > 100 µM (inactive) | –
Cc1cc2ncn(CC(=O)O)c2cc1C | > 100 µM (inactive) | > 100 µM (inactive) | > 100 µM (inactive) | > 100 µM (inactive) | > 100 µM (inactive) | > 100 µM (inactive) | > 100 µM (inactive) | > 100 µM (inactive) | > 100 µM (inactive) | > 100 µM (inactive) | > 100 µM (inactive) | > 100 µM (inactive) | > 100 µM (inactive) | > 100 µM (inactive) | > 100 µM (inactive) | > 100 µM (inactive) | > 100 µM (inactive) | > 100 µM (inactive) | > 100 µM (inactive) | –
Cc1c2c(OCC3CCCCO3)nn(C)c(=O)c2c(C)n1-c1ccccc1 (configuration not stated) | 17.2 µM (inactive) | 17.5 µM (inactive) | – | 31.6 µM (inactive) | 38.8 µM (inactive) | 18.6 µM (inactive) | 17.7 µM (inactive) | 23.4 µM (inactive) | 14.7 µM (inactive) | 19.7 µM (inactive) | 31.3 µM (inactive) | 16.5 µM (inactive) | 15.1 µM (inactive) | 18.3 µM (inactive) | 19.4 µM (inactive) | – | 18.6 µM (inactive) | 16.4 µM (inactive) | 16.6 µM (inactive) | 19.5 µM (inactive)
CCOc1cccc(/C=N/N=C2\C(=O)Nc3c(Cl)cc(Cl)cc32)c1O | 74.6 µM (inactive) | > 100 µM (inactive) | 33.4 µM (inactive) | > 100 µM (inactive) | 41.1 µM (inactive) | > 100 µM (inactive) | 32.5 µM (inactive) | > 100 µM (inactive) | 37 µM (inactive) | 44.2 µM (inactive) | – | 62.5 µM (inactive) | 64.4 µM (inactive) | > 100 µM (inactive) | 73.6 µM (inactive) | 75.9 µM (inactive) | > 100 µM (inactive) | 58.2 µM (inactive) | 34 µM (inactive) | 45.7 µM (inactive)
COC(=O)C1c2cc3c(cc2C(OC2OC(C)C(OC)C(C)(OC)C2OC)CC1(C)O)C(=O)c1c(O)cc2c(c1C3=O)OC1OC2(C)C(O)C([N+](C)(C)[O-])C1O (configuration not stated) | 0.111 µM (active) | 0.227 µM (active) | 0.286 µM (active) | 0.173 µM (active) | 0.0324 µM (active) | 0.154 µM (active) | 0.0354 µM (active) | – | 0.0644 µM (active) | 0.355 µM (active) | 0.122 µM (active) | 0.269 µM (active) | 0.0776 µM (active) | 1.64 µM (inactive) | 0.102 µM (active) | 0.0845 µM (active) | 0.182 µM (active) | 0.0509 µM (active) | 1.19 µM (inactive) | 0.0512 µM (active)
N#Cc1c(N)nc2c(/N=N\c3ccccc3)c(N)nn2c1Nc1ccccc1 | 18.6 µM (inactive) | 21.1 µM (inactive) | 2.52 µM (inactive) | 12.4 µM (inactive) | 3.4 µM (inactive) | 4.75 µM (inactive) | 3.4 µM (inactive) | 25.7 µM (inactive) | 10.1 µM (inactive) | 5.69 µM (inactive) | 3.56 µM (inactive) | 16.8 µM (inactive) | 14.9 µM (inactive) | – | 7.69 µM (inactive) | 10.8 µM (inactive) | 18.7 µM (inactive) | – | > 10 µM (inactive) | 15.6 µM (inactive)
NC(=O)C(=O)C(c1ccccc1)S(=O)(=O)Cc1ccccc1 (configuration not stated) | > 100 µM (inactive) | > 100 µM (inactive) | – | > 100 µM (inactive) | > 100 µM (inactive) | > 100 µM (inactive) | > 100 µM (inactive) | > 100 µM (inactive) | > 100 µM (inactive) | > 100 µM (inactive) | > 100 µM (inactive) | > 100 µM (inactive) | > 100 µM (inactive) | > 100 µM (inactive) | > 100 µM (inactive) | > 100 µM (inactive) | > 100 µM (inactive) | > 100 µM (inactive) | > 100 µM (inactive) | > 100 µM (inactive)
O=C(O)CSc1cc(-c2ccccc2)nc2ccccc12 | 47.1 µM (inactive) | 55.5 µM (inactive) | 22.2 µM (inactive) | 36.2 µM (inactive) | 33.3 µM (inactive) | 30.5 µM (inactive) | 46 µM (inactive) | – | 38.7 µM (inactive) | 35.2 µM (inactive) | – | 45.5 µM (inactive) | 30.4 µM (inactive) | – | 36.6 µM (inactive) | 44.3 µM (inactive) | 71.9 µM (inactive) | 48.3 µM (inactive) | 42.8 µM (inactive) | 35.6 µM (inactive)
CCOC(=O)C(NC(=O)c1cccc(Cl)c1)(Nc1cccc(C)c1)C(F)(F)F (configuration not stated) | 23.3 µM (inactive) | 32 µM (inactive) | 38.5 µM (inactive) | 13.3 µM (inactive) | 23.6 µM (inactive) | 13.6 µM (inactive) | 15.3 µM (inactive) | 14 µM (inactive) | 20.8 µM (inactive) | 16.5 µM (inactive) | 18.3 µM (inactive) | – | 16.1 µM (inactive) | – | 21.2 µM (inactive) | 16.4 µM (inactive) | 25.7 µM (inactive) | 14.5 µM (inactive) | 15.1 µM (inactive) | 17.5 µM (inactive)
O=c1c2cc(-c3ccccc3)cnc2sn1-c1ccc(Oc2ccccc2)cc1 | 17.3 µM (inactive) | 19.5 µM (inactive) | > 100 µM (inactive) | 23.4 µM (inactive) | > 100 µM (inactive) | 48.5 µM (inactive) | – | 87.5 µM (inactive) | > 100 µM (inactive) | 20.4 µM (inactive) | 53.1 µM (inactive) | 31 µM (inactive) | – | > 100 µM (inactive) | 31.3 µM (inactive) | 37.8 µM (inactive) | 67 µM (inactive) | 26.9 µM (inactive) | 47 µM (inactive) | 28.4 µM (inactive)
CC[C@@H]1/C=C/C=C/C[C@H](C)[C@@H](O)[C@](C)(O)C(=O)[C@H](C)[C@@H](O)[C@H](C)C(=O)[C@H](C)[C@@H](O)[C@H](C)/C=C/C(=O)O[C@H]2[C@@H](C)[C@@H](CC1)O[C@]1(O[C@H](CC(C)O)[C@H](C)CC1=O)[C@@H]2C (some centres not stated) | 4.79 µM (inactive) | < 0.0025 µM (active) | 0.107 µM (active) | 2.92 µM (inactive) | < 0.0025 µM (active) | 3.81 µM (inactive) | 3.99 µM (inactive) | – | 1.04 µM (active) | < 0.0025 µM (active) | < 0.0025 µM (active) | < 0.0025 µM (active) | < 0.0025 µM (active) | 5.66 µM (inactive) | 3.74 µM (inactive) | 5.57 µM (inactive) | < 0.0025 µM (active) | 3.22 µM (inactive) | 2.81 µM (inactive) | 3.35 µM (inactive)
C1=C2C3=[N+](CCCC3)CC2Cc2ccsc21 (configuration not stated) | > 100 µM (inactive) | 25 µM (inactive) | 76.2 µM (inactive) | > 100 µM (inactive) | > 100 µM (inactive) | 42.4 µM (inactive) | > 100 µM (inactive) | > 100 µM (inactive) | 38 µM (inactive) | 45.1 µM (inactive) | – | 55.3 µM (inactive) | 66.5 µM (inactive) | > 100 µM (inactive) | > 100 µM (inactive) | > 100 µM (inactive) | 33.9 µM (inactive) | > 100 µM (inactive) | > 100 µM (inactive) | > 100 µM (inactive)
CN1C(=O)c2ccccc2NC(=O)C12O[C@@H]2c1cccc(O)c1 (some centres not stated) | > 100 µM (inactive) | > 100 µM (inactive) | > 100 µM (inactive) | > 100 µM (inactive) | – | > 100 µM (inactive) | > 100 µM (inactive) | – | > 100 µM (inactive) | > 100 µM (inactive) | > 100 µM (inactive) | > 100 µM (inactive) | > 100 µM (inactive) | – | > 100 µM (inactive) | > 100 µM (inactive) | > 100 µM (inactive) | > 100 µM (inactive) | > 100 µM (inactive) | > 100 µM (inactive)
CC[C@H](C)[C@@H]1OC(=O)CCNC(=O)[C@@H](C)NC(=O)C(C)(C)C(=O)[C@H](C)NC(=O)[C@H](Cc2ccc(OC)cc2)N(C)C(=O)[C@H](C(C)C)N(C)C(=O)CNC(=O)[C@H](CC(C)C)N(C)C(=O)CNC1=O (cyclo(G[NMeL]G[NMeV][NMeY](Me)[X4][dA][βAla][Hmpa(2S,3S)])) | 0.676 µM (active) | 0.37 µM (active) | – | 1.84 µM (inactive) | 0.0389 µM (active) | – | 0.175 µM (active) | 5.92 µM (inactive) | 0.0615 µM (active) | 0.31 µM (active) | 0.0726 µM (active) | 0.306 µM (active) | 0.0879 µM (active) | 0.294 µM (active) | 0.367 µM (active) | 0.0625 µM (active) | 0.218 µM (active) | 0.294 µM (active) | 7.76 µM (inactive) | 0.299 µM (active)
